Source: ChEMBL document CHEMBL4020729, “Synthesis and evaluation of anti-plasmodial and cytotoxic activities of epoxyazadiradione derivatives” (Eur J Med Chem, 2017)
Active and inactive are the calls of the source. The rule behind the calls is not given here.

Key:
Plasmodium falciparum [1] = assay: Anti-plasmodial activity against chloroquine-sensitive Plasmodium falciparum 3D7 infected in human erythrocytes after 50 hrs by SYBR green dye based fluorescence assay; type: functional, cell-based; settings: 3D7, 50 h
Plasmodium falciparum [2] = assay: Anti-plasmodial activity against chloroquine-resistant Plasmodium falciparum Dd2 infected in human erythrocytes after 50 hrs by SYBR green dye based fluorescence assay; type: functional, cell-based; settings: Dd2, 50 h
SiHa = assay: Antiproliferative activity against human SiHa cells after 48 hrs by SRB assay; type: functional, cell-based
PANC-1 = assay: Antiproliferative activity against human PANC1 cells after 48 hrs by SRB assay; type: functional, cell-based; settings: PANC-1, 48 h
MDA-MB-231 = assay: Antiproliferative activity against human MDA-MB-231 cells after 48 hrs by SRB assay; type: functional, cell-based; settings: MDA-MB-231, 48 h
IMR-32 = assay: Antiproliferative activity against human IMR32 cells after 48 hrs by SRB assay; type: functional, cell-based; settings: IMR-32, 48 h
Plasmodium berghei = assay: Anti-plasmodial activity against Plasmodium berghei ANKA infected in BALB/c mouse at 50 mg/kg, ip assessed as reduction in parasitemia administered once per day for 4 days by Giemsa staining based light microscopic assay; type: functional, organism-based

SMILES	IC50 (Plasmodium falciparum [1]) [µM]	IC50 (Plasmodium falciparum [2]) [µM]	IC50 (SiHa) [µM]	IC50 (PANC-1) [µM]	IC50 (MDA-MB-231) [µM]	IC50 (IMR-32) [µM]	Activity (Plasmodium berghei)
CC(=O)O[C@@H]1C[C@H]2C(C)(C)C(=O)C=C[C@]2(C)[C@H]2CC[C@@]3(C)[C@H](c4ccoc4)/C(=N\OCc4cn(-c5ccc(C(C)=O)cc5)nn4)[C@H]4O[C@]43[C@@]21C	3.1	2.3	> 100	> 100	> 100	> 100	
CC(=O)O[C@@H]1C[C@H]2C(C)(C)C(=O)C=C[C@]2(C)[C@H]2CC[C@@]3(C)[C@H](c4ccoc4)/C(=N\OCc4cn(CC(=O)Nc5ccc(F)c(Cl)c5)nn4)[C@H]4O[C@]43[C@@]21C	32	26	> 100	> 100	> 100	> 100	
C#CCO/N=C1/[C@H]2O[C@]23[C@@]2(C)[C@H](CC[C@@]3(C)[C@@H]1c1ccoc1)[C@@]1(C)C=CC(=O)C(C)(C)[C@@H]1C[C@H]2OC(C)=O	7	8.4	> 100	> 100	> 100	> 100	
COc1cc(-n2cc(CO/N=C3/[C@H]4O[C@]45[C@@]4(C)[C@H](CC[C@@]5(C)[C@@H]3c3ccoc3)[C@@]3(C)C=CC(=O)C(C)(C)[C@@H]3C[C@H]4OC(C)=O)nn2)c(OC)cc1Cl	1.5	1.2	> 100	35.1	> 100	> 100	inactive
CC(=O)O[C@@H]1C[C@H]2C(C)(C)C(=O)C=C[C@]2(C)[C@H]2CC[C@@]3(C)[C@H](c4ccoc4)/C(=N\O)[C@H]4O[C@]43[C@@]21C	7.7	2.2	> 100	> 100	> 100	> 100	
CC(=O)O[C@@H]1C[C@H]2C(C)(C)C(=O)C=C[C@]2(C)[C@H]2CC[C@@]3(C)[C@H](c4ccoc4)C(=O)[C@H]4O[C@]43[C@@]21C [EPOXYAZADIRADIONE]	2.9	2.9	> 100	> 100	> 100	> 100	
CCN1CCN(CC(=O)O[C@@H]2C[C@H]3C(C)(C)C(=O)C=C[C@]3(C)[C@H]3CC[C@@]4(C)[C@H](c5ccoc5)C(=O)[C@H]5O[C@]54[C@@]32C)CC1	8.6	6	> 100	> 100	> 100	> 100	
CC(=O)O[C@@H]1C[C@H]2C(C)(C)C(=O)C=C[C@]2(C)[C@H]2CC[C@@]3(C)[C@H](c4ccoc4)/C(=N\OCc4cn(CC(=O)Nc5ccccc5)nn4)[C@H]4O[C@]43[C@@]21C	13.8	8.3	> 100	25.4	> 100	> 100	
CC1(C)C(=O)C=C[C@]2(C)[C@H]3CC[C@@]4(C)[C@H](c5ccoc5)C(=O)[C@H]5O[C@]54[C@]3(C)[C@H](OC(=O)c3ccc(F)c(Br)c3)C[C@@H]12	6	5.5	> 100	> 100	> 100	> 100	
CC(=O)O[C@@H]1C[C@H]2C(C)(C)C(=O)C=C[C@]2(C)[C@H]2CC[C@@]3(C)[C@H](c4ccoc4)/C(=N\OCc4cn(-c5cc([N+](=O)[O-])ccc5Cl)nn4)[C@H]4O[C@]43[C@@]21C	5.1	3.8	> 100	> 100	> 100	> 100	
CC1(C)C(=O)C=C[C@]2(C)[C@H]3CC[C@@]4(C)[C@H](c5ccoc5)C(=O)[C@H]5O[C@]54[C@]3(C)[C@H](O)C[C@@H]12	11.4	9.4					
CC(=O)O[C@@H]1C[C@H]2C(C)(C)C(=O)C=C[C@]2(C)[C@H]2CC[C@@]3(C)[C@H](c4ccoc4)/C(=N\OCc4cn(CC(=O)Nc5ccc(C)cc5)nn4)[C@H]4O[C@]43[C@@]21C	31	24	> 100	> 100	> 100	> 100	
CC(=O)O[C@@H]1C[C@H]2C(C)(C)C(=O)C=C[C@]2(C)[C@H]2CC[C@@]3(C)[C@H](c4ccoc4)/C(=N\OCc4cn(-c5ccc(Cl)c([N+](=O)[O-])c5)nn4)[C@H]4O[C@]43[C@@]21C	2.8	1.3	> 100	> 100	> 100	> 100	
CC(=O)O[C@@H]1C[C@H]2C(C)(C)C(=O)C=C[C@]2(C)[C@H]2CC[C@@]3(C)[C@H](c4ccoc4)/C(=N\OCc4cn(CC(=O)Nc5ccc(I)c(Cl)c5)nn4)[C@H]4O[C@]43[C@@]21C	53.2	87	> 100	> 100	> 100	> 100	
CC(=O)O[C@@H]1C[C@H]2C(C)(C)C(=O)C=C[C@]2(C)[C@H]2CC[C@@]3(C)[C@H](c4ccoc4)/C(=N\OC(=O)c4cccc([N+](=O)[O-])c4)[C@H]4O[C@]43[C@@]21C	28.6		> 100	> 100	> 100	> 100	
CC(=O)O[C@@H]1C[C@H]2C(C)(C)C(=O)C=C[C@]2(C)[C@H]2CC[C@@]3(C)[C@H](c4ccoc4)/C(=N\OC(=O)c4ccccc4Br)[C@H]4O[C@]43[C@@]21C	12.2		> 100	> 100	> 100	> 100	
CC1(C)C(=O)C=C[C@]2(C)[C@H]3CC[C@@]4(C)[C@H](c5ccoc5)C(=O)[C@H]5O[C@]54[C@]3(C)C(=O)C[C@@H]12	12.9	20	> 100	> 100	18	> 100	
CC(=O)O[C@@H]1C[C@H]2C(C)(C)C(=O)CC[C@]2(C)[C@H]2CC[C@@]3(C)[C@H](C4CCOC4)C(=O)[C@H]4O[C@]43[C@@]21C (some centres not stated)	78.7		> 100	> 100	> 100	> 100	
CC(=O)O[C@@H]1C[C@H]2C(C)(C)C(=O)C=C[C@]2(C)[C@H]2CC[C@@]3(C)[C@H](c4ccoc4)/C(=N\OCc4cn(-c5ccccc5C#N)nn4)[C@H]4O[C@]43[C@@]21C	1.7		> 100	> 100	> 100	> 100	
